According to patent US20170107212A1, “NOVEL COMPOUNDS” (Bayer Pharma Aktiengesellschaft, priority 2014, published 2017):
Structures can show the parent of a compound that is named as a salt.

Columns and labels:
[1] = test system: constitutive active colorectal cancer cell (CRC) Wnt pathway, HCT116 TOPFlash; experiment: Cellular reporter assay, HCT116 Super TopFlash (constitutive active Wnt pathway), luciferase expression; assay type: cell-based; settings: Homo sapiens, HCT116 Super TopFlash reporter cells, 36 hours incubation, dilution series 50 μM to 15 nM
Protocol: In order to discover and characterize small molecules which inhibit the constitutive active colorectal cancer cell (CRC) Wnt pathway, a cellular reporter assay was employed. The corresponding assay cell was generated by transfection of the colorectal cancer cell line HCT116 (ATCC, #CCL-247) with the Super TopFlash vector (Morin, Science 275, 1997, 1787-1790; Molenaar et al., Cell 86 (3), 1996, 391-399). The HCT116 cell line is cultivated at 37° C. and 5% CO2 in DMEM/F-12 (Life Technologies, #11320-074), supplemented with 2 mM glutamine, 20 mM HEPES, 1.4 mM pyruvate, 0.15% Na-bicarbonate and 10% foetal bovine serum (GIBCO, #10270), this cancer cell line is pathophysiological relevant since it carries a deletion of position S45 in the β-catenin gene, leading to constitutive active Wnt signaling. Stable transfectants were generated by cotransfection with pcDNA3 and selection of stable transfected cells with 1 mg/ml G418.
(§1) In preparation of the assay, the two cell lines were plated 24 hours before at 10000 cells per well of a 384 micro titre plate (MTP) in 30 μL growth medium. Selective inhibitory activity for small molecules on the mutated Wnt pathway was determined after parallel incubation of both (TOP and FOP) HCT116 reporter cell lines with a compound dilution series from 50 μM to 15 nM in steps of 3.16-fold dilutions in CAFTY buffer (130 mM NaCl, 5 mM KCl, 20 mM HEPES, 1 mM MgCl2, 5 mM NaHCO3, pH 7.4) containing 2 mM Ca^2+ and 0.01% BSA. The compounds were thereby serially prediluted in 100% DMSO and thereafter in addition 50 fold into the CAFTY compound dilution buffer (described above). From this dilution 10 μL were added to the cells in 30 μL growth medium and incubated for 36 hours at 37° C. and 5% CO2. Thereafter luciferase assay buffer (1:1 mixture of luciferase substrate buffer (20 mM Tricine, 2.67 mM MgSO4, 0.1 mM EDTA, 4 mM DTT, 270 μM Coenzyme A, 470 μM Luciferin, 530 μM ATP, ph adjusted to pH 7.8 with a sufficient volume of 5M NaOH) and Triton buffer (30 mL Triton X-100, 115 mL glycerol, 308 mg Dithiothreitol, 4.45 g Na2HPO4.2H2O, 3.03 g TRIS HCl, ad 1 l H20, pH 7.8) was added as equal volume to the compound solution on the cells to determine luciferase expression as a measure of Wnt signaling activity in a luminometer.

HCT116 FOPFlash = experiment: Control reporter assay, HCT116 FOP control vector (non-functional TCF elements), luciferase expression; assay type: cell-based; settings: Homo sapiens, HCT116 FOP control reporter cells, 36 hours incubation, dilution series 50 μM to 15 nM
Protocol: In a parallel approach, HCT116 cells were cotransfected with the FOP control vector and pcDNA3. The FOP vector is identical to the TOP construct, but it contains instead of functional TCF elements a randomized, non-functional sequence. For this transfection a stable transfected cell line was generated as well.
as §1

Row | SMILES | IC50 ([1]; HCT-116, 36 h) | IC50 (HCT116 FOPFlash; HCT-116, 36 h) | IC50 ([1]; HCT-116) | IC50 (HCT116 FOPFlash; HCT-116)
1 | CN1CCN(CC(=O)Nc2cc(C(=O)Nc3nnc(-c4nccs4)s3)ccc2OC(F)(F)F)CC1 [Example 45, 1-methyl-4-(2-oxo-2-{[5-{[5-(1,3-thiazol-2-yl)-1,3,4-thiadiazol-2-yl]carbamoyl}-2-(trifluoromethoxy)phenyl]amino}ethyl)piperazin-1-ium hexafluorophosphate] | – | – | 1480 nM | 45 µM
2 | CN1CCN(CC(=O)Nc2cc(C(=O)Nc3ccc(-c4cncnc4)cn3)ccc2OC(F)(F)F)CC1 [Example 46, 3-{[(4-methylpiperazin-1-yl)acetyl]amino}-N-[5-(pyrimidin-5-yl)pyridin-2-yl]-4-(trifluoromethoxy)benzamide] | 18.3 nM | ≥ 50 µM | – | –
3 | O=C(CN1CCOCC1)Nc1cc(C(=O)Nc2nnc(-c3cncc(Cl)c3)s2)ccc1OC(F)(F)F [Example 47, N-[5-(5-chloropyridin-3-yl)-1,3,4-thiadiazol-2-yl]-3-[(morpholin-4-ylacetyl)amino]-4-(trifluoromethoxy)benzamide] | 585 nM | ≥ 50 µM | – | –
4 | Cc1cncc(-c2nnc(NC(=O)c3ccc(OC(F)(F)F)c(NC(=O)CN4CCOCC4)c3)s2)n1 [Example 48, N-[5-(6-methylpyrazin-2-yl)-1,3,4-thiadiazol-2-yl]-3-[(morpholin-4-ylacetyl)amino]-4-(trifluoromethoxy)benzamide] | 663 nM | ≥ 50 µM | – | –
5 | Nc1ccc(-c2nnc(NC(=O)c3ccc(OC(F)(F)F)c(NC(=O)C4(N5CCOCC5)CC4)c3)s2)cn1 [Example 49, N-[5-(6-aminopyridin-3-yl)-1,3,4-thiadiazol-2-yl]-3-({[1-(morpholin-4-yl)cyclopropyl]carbonyl}amino)-4-(trifluoromethoxy)benzamide] | 310 nM | ≥ 50 µM | – | –
6 | CN1CCN(CC(=O)Nc2cc(C(=O)Nc3nnc(-c4cccnc4)s3)ccc2OCC(F)(F)F)CC1 [Example 50, 3-{[(4-methylpiperazin-1-yl)acetyl]amino}-N-[5-(pyridin-3-yl)-1,3,4-thiadiazol-2-yl]-4-(2,2,2-trifluoroethoxy)benzamide hydrochloride (1:1)] | 293 nM | 20.5 µM | – | –
7 | CN1CCN(CC(=O)Nc2cc(C(=O)Nc3cnc(-c4cccnc4F)cn3)ccc2OC(F)(F)F)CC1 [Example 51] | 79 nM | ≥ 50 µM | – | –
8 | CN1CCN(CC(=O)Nc2cc(C(=O)Nc3cnc(-c4ccncc4)cn3)ccc2OC(F)(F)F)CC1 [Example 52, 3-{[(4-methylpiperazin-1-yl)acetyl]amino}-N-[5-(pyridin-4-yl)pyrazin-2-yl]-4-(trifluoromethoxy)benzamide] | 64 nM | ≥ 50 µM | – | –
9 | CN1CCN(CC(=O)Nc2cc(C(=O)Nc3cnc(-c4ccnc(N)c4)cn3)ccc2OC(F)(F)F)CC1 [Example 53, N-[5-(2-aminopyridin-4-yl)pyrazin-2-yl]-3-{[(4-methylpiperazin-1-yl)acetyl]amino}-4-(trifluoromethoxy)benzamide] | 2000 nM | ≥ 50 µM | – | –
10 | CN1CCN(CC(=O)Nc2cc(C(=O)Nc3cnc(-c4ccc(N)nc4)cn3)ccc2OC(F)(F)F)CC1 [Example 54, N-[5-(6-aminopyridin-3-yl)pyrazin-2-yl]-3-{[(4-methylpiperazin-1-yl)acetyl]amino}-4-(trifluoromethoxy)benzamide] | 35.5 nM | ≥ 50 µM | – | –
11 | Nc1ccc(-c2nnc(NC(=O)c3ccc(OC(F)(F)F)c(NC(=O)CN4CCOCC4)c3)s2)cn1 [Example 55, N-[5-(6-aminopyridin-3-yl)-1,3,4-thiadiazol-2-yl]-3-[(morpholin-4-ylacetyl)amino]-4-(trifluoromethoxy)benzamide] | 240 nM | ≥ 50 µM | – | –

Continued, in another order:

Row | IC50 ([1]; HCT-116, 36 h) | IC50 (HCT116 FOPFlash; HCT-116, 36 h) | SMILES | IC50 ([1]; HCT-116) | IC50 (HCT116 FOPFlash; HCT-116)
12 | 470 nM | ≥ 50 µM | Cc1cncc(-c2nnc(NC(=O)c3ccc(OC(F)(F)F)c(NC(=O)CN4CCOCC4)c3)s2)c1 [Example 56, N-[5-(5-methylpyridin-3-yl)-1,3,4-thiadiazol-2-yl]-3-[(morpholin-4-ylacetyl)amino]-4-(trifluoromethoxy)benzamide] | – | –
13 | 240 nM | ≥ 50 µM | CN1CCN(CC(=O)Nc2cc(C(=O)Nc3nnc(-c4cncc(C(F)(F)F)c4)s3)ccc2OC(F)(F)F)CC1 [Example 57, 3-{[(4-methylpiperazin-1-yl)acetyl]amino}-4-(trifluoromethoxy)-N-{5-[5-(trifluoromethyl)pyridin-3-yl]-1,3,4-thiadiazol-2-yl}benzamide] | – | –
14 | 7390 nM | 27.3 µM | O=C(CN1CCOCC1)Nc1cc(C(=O)Nc2nnc(-c3cncc(C(F)(F)F)c3)s2)ccc1OC(F)(F)F [Example 58, 3-[(morpholin-4-ylacetyl)amino]-4-(trifluoromethoxy)-N-{5-[5-(trifluoromethyl)pyridin-3-yl]-1,3,4-thiadiazol-2-yl}benzamide] | – | –
15 | 4100 nM | ≥ 50 µM | CN1CCN(CC(=O)Nc2cc(C(=O)Nc3cnc(-c4cnc(N)cn4)cn3)ccc2OC(F)(F)F)CC1 [Example 59, N-(5′-amino-2,2′-bipyrazin-5-yl)-3-{[(4-methylpiperazin-1-yl)acetyl]amino}-4-(trifluoromethoxy)benzamide] | – | –
16 | 4400 nM | ≥ 50 µM | CN1CCN(CC(=O)Nc2cc(C(=O)Nc3nnc(-c4cnccn4)s3)ccc2OC2CC2)CC1 [Example 60, 4-(cyclopropyloxy)-3-{[(4-methylpiperazin-1-yl)acetyl]amino}-N-[5-(pyrazin-2-yl)-1,3,4-thiadiazol-2-yl]benzamide] | – | –
17 | 340 nM | ≥ 50 µM | Cc1ccncc1-c1nnc(NC(=O)c2ccc(OCC(F)(F)F)c(NC(=O)CN3CCN(C)CC3)c2)s1 [Example 61, 3-{[(4-methylpiperazin-1-yl)acetyl]amino}-N-[5-(4-methylpyridin-3-yl)-1,3,4-thiadiazol-2-yl]-4-(2,2,2-trifluoroethoxy)benzamide] | – | –
18 | 1010 nM | 8.55 µM | Cc1ccnc(-c2nnc(NC(=O)c3ccc(OC(F)(F)F)c(NC(=O)CN4CCN(C)CC4)c3)s2)c1 [Example 62, 3-{[(4-methylpiperazin-1-yl)acetyl]amino}-N-[5-(4-methylpyridin-2-yl)-1,3,4-thiadiazol-2-yl]-4-(trifluoromethoxy)benzamide] | – | –
19 | 1080 nM | 43.5 µM | Cc1csc(-c2nnc(NC(=O)c3ccc(OC(F)(F)F)c(NC(=O)CN4CCN(C)CC4)c3)s2)n1 [Example 63, 3-{[(4-methylpiperazin-1-yl)acetyl]amino}-N-[5-(4-methyl-1,3-thiazol-2-yl)-1,3,4-thiadiazol-2-yl]-4-(trifluoromethoxy)benzamide] | – | –
20 | 1110 nM | 46 µM | CN1CCN(CC(=O)Nc2cc(C(=O)Nc3nnc(-c4cscn4)s3)ccc2OC(F)(F)F)CC1 [Example 64, 3-{[(4-methylpiperazin-1-yl)acetyl]amino}-N-[5-(1,3-thiazol-4-yl)-1,3,4-thiadiazol-2-yl]-4-(trifluoromethoxy)benzamide] | – | –
21 | 1470 nM | ≥ 50 µM | CN1CCN(CC(=O)Nc2cc(C(=O)Nc3nnc(-c4cnc(N)s4)s3)ccc2OC(F)(F)F)CC1 [Example 66, N-[5-(2-amino-1,3-thiazol-5-yl)-1,3,4-thiadiazol-2-yl]-3-{[(4-methylpiperazin-1-yl)acetyl]amino}-4-(trifluoromethoxy)benzamide] | – | –
22 | 1650 nM | ≥ 50 µM | O=C(CN1CCOCC1)Nc1cc(C(=O)Nc2nnc(-c3cscn3)s2)ccc1OC(F)(F)F [Example 67, 3-[(morpholin-4-ylacetyl)amino]-N-[5-(1,3-thiazol-4-yl)-1,3,4-thiadiazol-2-yl]-4-(trifluoromethoxy)benzamide] | – | –
23 | 1860 nM | ≥ 50 µM | CN1CCN(CC(=O)Nc2cc(C(=O)Nc3nnc(-c4cncs4)s3)ccc2OC(F)(F)F)CC1 [Example 68, 3-{[(4-methylpiperazin-1-yl)acetyl]amino}-N-[5-(1,3-thiazol-5-yl)-1,3,4-thiadiazol-2-yl]-4-(trifluoromethoxy)benzamide] | – | –
